Experimental data as given in patent publication US9458154B2, “Kinase inhibitors” (Chiesi Farmaceutici S.p.A., priority 2011, dated 2016).
Counter-ions that a name gives are not always drawn.

Each molecule was assayed against T1, p38alpha (Homo sapiens, UniProt Q16539) (assay: P38alpha Enzyme Inhibition Assay (Alphascreen kinase activity assay)). Conditions: 100 pM p38alpha, ATF-2 fusion protein substrate, 250 μM ATP, 2 hours preincubation at 25° C.; read-out: p38α inhibition.
T1 construct: purchased Invitrogen PV3304
T1 sequence (Q16539 whole entry, the tested form may be a part): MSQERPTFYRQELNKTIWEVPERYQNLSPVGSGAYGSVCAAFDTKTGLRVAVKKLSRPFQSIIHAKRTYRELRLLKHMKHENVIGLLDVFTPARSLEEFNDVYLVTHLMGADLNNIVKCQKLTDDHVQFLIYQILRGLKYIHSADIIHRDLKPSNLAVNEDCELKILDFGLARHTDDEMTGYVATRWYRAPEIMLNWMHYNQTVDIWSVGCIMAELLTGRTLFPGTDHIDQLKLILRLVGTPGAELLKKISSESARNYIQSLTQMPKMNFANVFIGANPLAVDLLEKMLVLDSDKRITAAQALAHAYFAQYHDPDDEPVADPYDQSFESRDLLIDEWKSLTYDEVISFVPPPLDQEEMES
Format: biochemical
Experimental: P38alpha Enzyme Inhibition Assay
The inhibitory activity of compounds was determined using an Alphascreen® (Perkin Elmer) based kinase activity assay. Kinase reactions consisted of 25 mM HEPES pH 7.5, 10 mM MgCl2, 100 μM Na3VO4, 2 mM DTT, 0.05 mg/ml Tween 20, 100 pM p38alpha (Invitrogen, PV3304), 1% DMSO and 0.3 μg/ml ATF-2 fusion protein (New England Biolabs, 9224). Compounds were incubated under these conditions for 2 hours, at 25° C., prior to the initiation of the kinase activity by the addition of the 250 μM ATP. Reaction volumes were 20 uL. After 1 hr at 25° C. reactions were stopped by the adding 10 uL of 25 mM HEPES pH 7.5 containing 62.5 mM EDTA, 0.05% Triton X-100, 10% BSA and 0.83 ng/uL anti-phospho-ATF2 antibody (Abcam, ab28812). Detection was performed by measuring luminescence following the addition of Alphascreen Donor beads (Perkin Elmer 6765300) and Protein A Alphascreen Acceptor beads (Perkin Elmer 6760137), both at a final concentration of 20 ug/ml. IC50 values were determined from concentration-response curves.

Structure (SMILES)	IC50
Cc1ccc(-n2nc(C(C)(C)C)cc2NC(=O)N[C@@H]2C[C@@H](Sc3ccc4nnc(C(C)C)n4c3)c3ccccc32)cc1 (racemic) [Example 3, (±)-trans-1-(5-tert-Butyl-2-p-tolyl-2H-pyrazol-3-yl)-3-[3-(3-isopropyl-[1,2,4]triazolo[4,3-a]pyridin-6-ylsulfanyl)-indan-1-yl]-urea]	< 10 nM
CC(C)c1nnc2ccc(O[C@@H]3CC[C@H](NC(=O)Nc4cc(C(C)(C)C)nn4-c4ccccc4)c4ccccc43)cn12 [Example 1, 1-(5-tert-Butyl-2-phenyl-2H-pyrazol-3-yl)-3-[(1S,4R)-4-(3-isopropyl-[1,2,4]triazolo[4,3-a]pyridin-6-yloxy)-1,2,3,4-tetrahydro-naphthalen-1-yl]-urea]	< 10 nM
CC(C)c1nnc2ccc(O[C@H]3CC[C@H](NC(=O)NC4CC4)c4ccccc43)cn12 [Example 2, 1-Cyclopropyl-3-[(1S,4S)-4-(3-isopropyl-[1,2,4]triazolo[4,3-a]pyridin-6-yloxy)-1,2,3,4-tetrahydro-naphthalen-1-yl]-urea]	< 10 nM
Cc1ccc(-n2nc(C(C)(C)C)cc2NC(=O)N[C@H]2CC[C@@H](Oc3ccc4nnc(-c5cccc(OCCN6CCOCC6)c5)n4c3)c3ccccc32)cc1 [Example 4, 1-(5-tert-Butyl-2-p-tolyl-2H-pyrazol-3-yl)-3-[(1S,4R)-4-{3-[3-(2-morpholin-4-yl-ethoxy)-phenyl]-[1,2,4]triazolo[4,3-a]pyridin-6-yloxy}-1,2,3,4-tetrahydro-naphthalen-1-yl)-urea]	< 10 nM
Cc1ccc(-n2nc(C(C)(C)C)cc2NC(=O)N[C@H]2CC[C@@H](Oc3ccn4c(C(C)C)nnc4c3)c3ccccc32)cc1 [Example 5, 1-(5-tert-Butyl-2-p-tolyl-2H-pyrazol-3-yl)-3-[(1S,4R)-4-(3-isopropyl-[1,2,4]triazolo[4,3-a]pyridin-7-yloxy)-1,2,3,4-tetrahydro-naphthalen-1-yl]-urea]	< 10 nM
CC(C)c1nnc2ccc(O[C@@H]3CC[C@H](NC(=O)Nc4cc(C(C)(C)C)nn4-c4cccc(OCCN5CCOCC5)c4)c4ccccc43)cn12 [Example 6, 1-{5-tert-Butyl-2-[3-(2-morpholin-4-yl-ethoxy)-phenyl]-2H-pyrazol-3-yl}-3-[(1S,4R)-4-(3-isopropyl-[1,2,4]triazolo[4,3-a]pyridin-6-yloxy)-1,2,3,4-tetrahydro-naphthalen-1-yl]-urea]	< 10 nM
Cc1ccc(-n2nc(C(C)(C)C)cc2NC(=O)N[C@H]2CC[C@@H](Oc3ccc4nnc(-c5ccccc5O)n4c3)c3ccccc32)cc1 [Example 7, 1-(5-tert-Butyl-2-p-tolyl-2H-pyrazol-3-yl)-3-{(1S,4R)-4-(3-(2-hydroxy-phenyl)-[1,2,4]triazolo[4,3-a]pyridin-6-yloxy)-1,2,3,4-tetrahydro-naphthalen-1-yl}-urea]	< 10 nM
CC(C)c1nnc2ccc(O[C@H]3C[C@H](NC(=O)Nc4cc(C(C)(C)C)on4)c4ccccc43)cn12 [Example 8, 1-(5-tert-Butyl-isoxazol-3-yl)-3-[(1S,3S)-3-(3-isopropyl-[1,2,4]triazolo[4,3-a]pyridin-6-yloxy)-indan-1-yl]-urea]	< 10 nM
COCC(=O)Nc1cc(CO[C@@H]2CC[C@H](NC(=O)Nc3cc(C(C)(C)C)nn3-c3ccc(C)cc3)c3ccccc32)ccn1 [Example 9, N-(4-{(1R,4S)-4-[3-(5-tert-Butyl-2-p-tolyl-2H-pyrazol-3-yl)-ureido]-1,2,3,4-tetrahydro-naphthalen-1-yloxymethyl}-pyridin-2-yl)-2-methoxy-acetamide]	< 10 nM
Cc1ccc(-n2nc(C(C)(C)C)cc2NC(=O)N[C@H]2CC[C@@H](Oc3ccc4nnc(-c5ccccc5SCCO)n4c3)c3ccccc32)cc1 [Example 10]	< 10 nM
CC(C)c1nnc2ccc(O[C@@H]3CC[C@H](NC(=O)Nc4cc(C(C)(C)C)nn4-c4cccc(OCCN(C)C)c4)c4ccccc43)cn12 [Example 11, 1-{5-tert-Butyl-2-[3-(2-dimethylamino-ethoxy)-phenyl]-2H-pyrazol-3-yl}-3-[(1S,4R)-4-(3-isopropyl-[1,2,4]triazolo[4,3-a]pyridin-6-yloxy)-1,2,3,4-tetrahydro-naphthalen-1-yl]-urea]	< 10 nM
CC(C)c1nnc2ccc(O[C@@H]3CC[C@H](NC(=O)Nc4cc(C(C)(C)C)nn4-c4ccc(O)c(Cl)c4)c4ccccc43)cn12 [Example 12, 1-[5-tert-Butyl-2-(3-chloro-4-hydroxy-phenyl)-2H-pyrazol-3-yl]-3-[(1S,4R)-4-(3-isopropyl-[1,2,4]triazolo[4,3-a]pyridin-6-yloxy)-1,2,3,4-tetrahydro-naphthalen-1-yl]-urea]	< 10 nM
CC(C)c1nnc2ccc(O[C@@H]3CC[C@H](NC(=O)NC4CC4)c4ccccc43)cn12 [Example 13, 1-Cyclopropyl-3-[(1S,4R)-4-(3-isopropyl-[1,2,4]triazolo[4,3-a]pyridin-6-yloxy)-1,2,3,4-tetrahydro-naphthalen-1-yl]-urea]	10 to 100 nM
CC(C)c1nnc2ccc(O[C@@H]3CC[C@H](NC(=O)Nc4cc(C(C)(C)C)nn4-c4ccc(Cl)c(O)c4)c4ccccc43)cn12 [Example 14, 1-(5-tert-Butyl-2-(4-chloro-3-hydroxyphenyl)-2H-pyrazol-3-yl)-3-[(1S,4R)-4-(3-isopropyl-[1,2,4]triazolo[4,3-a]pyridin-6-yloxy)-1,2,3,4-tetrahydronaphthalen-1-yl]-urea]	< 10 nM
CC(C)c1nnc2ccc(O[C@@H]3CC[C@H](NC(=O)Nc4cc(C(C)(C)C)nn4-c4ccc(O)cc4)c4ccccc43)cn12 [Example 15, 1-[5-tert-Butyl-2-(4-hydroxy-phenyl)-2H-pyrazol-3-yl]-3-[(1S,4R)-4-(3-isopropyl-[1,2,4]triazolo[4,3-a]pyridin-6-yloxy)-1,2,3,4-tetrahydro-naphthalen-1-yl]-urea]	< 10 nM
Cc1ccc(-n2nc(C(C)(C)C)cc2NC(=O)N[C@H]2CC[C@@H](Oc3ccc4nnc(C(C)(C)C)n4c3)c3ccccc32)cc1 [Example 16, 1-(5-tert-Butyl-2-p-tolyl-2H-pyrazol-3-yl)-3-[(1S,4R)-4-(3-tert-butyl-[1,2,4]triazolo[4,3-a]pyridin-6-yloxy)-1,2,3,4-tetrahydro-naphthalen-1-yl]-urea]	< 10 nM
CC(C)c1nnc2ccc(O[C@@H]3CC[C@H](NC(=O)Nc4cc(C(C)(C)C)on4)c4ccccc43)cn12 [Example 17, 1-(5-tert-Butyl-isoxazol-3-yl)-3-[(1S,4R)-4-(3-isopropyl-[1,2,4]triazolo[4,3-a]pyridin-6-yloxy)-1,2,3,4-tetrahydro-naphthalen-1-yl]-urea]	< 10 nM
Cc1ccc(-n2nc(C(C)(C)C)cc2NC(=O)N[C@H]2CC[C@@H](Oc3ccc4nnc(C5CCCC5)n4c3)c3ccccc32)cc1 [Example 18, 1-(5-tert-Butyl-2-p-tolyl-2H-pyrazol-3-yl)-3-[(1S,4R)-4-(3-cyclopentyl-[1,2,4]triazolo[4,3-a]pyridin-6-yloxy)-1,2,3,4-tetrahydro-naphthalen-1-yl]-urea]	< 10 nM
CC(C)c1nnc2ccc(O[C@@H]3CC[C@H](NC(=O)Nc4cc(C(C)(C)C)nn4-c4cccc(CN5CCOCC5)c4)c4ccccc43)cn12 [Example 19, 1-[5-tert-Butyl-2-(3-morpholin-4-ylmethyl-phenyl)-2H-pyrazol-3-yl]-3-[(1S,4R)-4-(3-isopropyl-[1,2,4]triazolo[4,3-a]pyridin-6-yloxy)-1,2,3,4-tetrahydro-naphthalen-1-yl]-urea, formic acid salt]	< 10 nM
Cc1ccc(-n2nc(C(C)(C)C)cc2NC(=O)N[C@H]2CC[C@@H](Oc3ccc4nnc(-c5c(Cl)cccc5Cl)n4c3)c3ccccc32)cc1 [Example 20]	< 10 nM
Cc1ccc(-n2nc(C(C)(C)C)cc2NC(=O)N[C@H]2CC[C@@H](Oc3ccc4nnc(C5CC5)n4c3)c3ccccc32)cc1 [Example 21, 1-(5-tert-Butyl-2-p-tolyl-2H-pyrazol-3-yl)-3-[(1S,4R)-4-(3-cyclopropyl-[1,2,4]triazolo[4,3-a]pyridin-6-yloxy)-1,2,3,4-tetrahydro-naphthalen-1-yl}-urea]	< 10 nM
Cc1ccc(-n2nc(C(C)(C)C)cc2NC(=O)N[C@H]2CC[C@@H](Oc3ccc4nnc(-c5ccccn5)n4c3)c3ccccc32)cc1 [Example 22, 1-(5-tert-Butyl-2-p-tolyl-2H-pyrazol-3-yl)-3-[(1S,4R)-4-(3-pyridin-2-yl-[1,2,4]triazolo[4,3-a]pyridin-6-yloxy)-1,2,3,4-tetrahydro-naphthalen-1-yl}-urea]	< 10 nM
Cc1ccc(-n2nc(C(C)(C)C)cc2NC(=O)N[C@H]2CC[C@@H](Oc3ccc4nnc(-c5ccccc5Cl)n4c3)c3ccccc32)cc1 [Example 23]	< 10 nM
Cc1ccc(-n2nc(C(C)(C)C)cc2NC(=O)N[C@H]2CC[C@@H](Oc3ccc4nnc(-c5ccccc5OCc5ccccc5)n4c3)c3ccccc32)cc1 [Example 24, 1-{(1S,4R)-4-[3-(2-Benzyloxy-phenyl)-[1,2,4]triazolo[4,3-a]pyridin-6-yloxy)-1,2,3,4-tetrahydro-naphthalen-1-yl}-3-(5-tert-butyl-2-p-tolyl-2H-pyrazol-3-yl)-urea]	< 10 nM
CC(C)c1nnc2ccc(O[C@H]3CC[C@H](NC(=O)Nc4cc(C(C)(C)C)nn4-c4ccc(O)c(Cl)c4)c4ccccc43)cn12 [Example 25, 1-[5-tert-Butyl-2-(3-chloro-4-hydroxy-phenyl)-2H-pyrazol-3-yl]-3-[(1S,4S)-4-(3-isopropyl-[1,2,4]triazolo[4,3-a]pyridin-6-yloxy)-1,2,3,4-tetrahydro-naphthalen-1-yl]-urea]	< 10 nM
